Measured values: patent US12310954B2, “Salivary gland regeneration” (The Regents of the University of California, priority 2018, dated 2025)

What was measured:
[1] = system: acinar cells of the sublingual gland; experiment: Intraglandular injection of cevimeline, acinar cell proliferation; assay type: in vivo, mouse; settings: 10 mg/kg (20 μL) directly into sublingual gland, 18 hrs, non-irradiated mice, vs saline
Procedure: Given our previous findings that systemic administration of a muscarinic mimetic promotes salivary gland proliferation, we next determined if local intraglandular injection was also able to promote a mitotic response. To determine if cevimeline could act locally on the salivary gland to induce acinar cell proliferation we injected cevimeline at 10 mg/kg of body weight (20 μL) directly into the sublingual gland and measured proliferation after 18 hrs.
For Intraglandular injection of cevimeline, mice were administered with analgesics 30 min prior to surgery (carprofen and buprenorphine; Patterson Veterinary and Buprenex; 0.1 mg/kg and […] (IP), respectively) and anaesthetized via inhalation with 2% isoflurane/O2mix. The surgical area was shaved and prepared for incision with alternating iodine and alcohol washes, followed by local anesthetic (lidocaine; Hospira Inc., 8 mg/kg). […]
Tissue section immunofluorescence analysis was processed as follows. […] Antibodies were detected using Cy2-, Cy3- or Cy5-conjugated secondary Fab fragment antibodies (1:300, Jackson Laboratories) and nuclei stained using Hoescht 33342 (1:1000, AnaSpec Inc.). […] Slides were mounted using Fluoromount-G (SouthernBiotech) and fluorescence was analyzed using a Leica Sp5 confocal microscope. Image processing and quantification was performed using NIH ImageJ software.

[2] = In vitro cevimeline release from alginate hydrogels (LC-MS/MS); assay type: physicochemical
Procedure: A Shimadzu Prominence LC-20ADXR system interfaced to a 4500 QTrap mass spectrometer with an electrospray ionization (ESI) source was operated for LC-MS/MS analysis. The chromatographic separation was achieved using a Phenomenex KineteX® C18 (50×3 mm, 2.6 μm) column coupled with a Phenomenex SecurityGuard C18 guard column (3 mm×2.0 mm). The column temperature was controlled at 30° C. Mobile phase A was 0.1% Trifluoroacetic acid in water and mobile phase B was acetonitrile (ACN). The injection volume was 10 μL and the flow rate was 0.5 mL/min. The gradient condition was: (time/minute, % mobile phase B): (0, 15), (1, 15), (2.5, 22.8), (2.6, 98), (5, 98), (5.1, 15), and (8, 15). The source parameters included curtain gas of 45 psi, ion spray voltage of 4000 V, ion source temperature of 550, and medium collision gas.
Standard working solutions of cevimeline were prepared over the range from of 10.0-10000.0 ng/mL in methanol. Working solutions were spiked into 100 μL of DMEM to generate the standards or QC samples. The final concentrations of the calibration standards were 0.5, 1.0, 2.5, 5.0, 10.0, 25.0, 50.0 and 100.0, 250.0 and 500 ng/mL in DMEM. The QC samples were 0.9, 4, 30.0 and 400.0 ng/mL.
For the sample preparation step, to each 100 μL DMEM, 10 μL IS working solution (1000 ng/mL) was added. 96-Well Protein Precipitation Filter Plate Sigma-Aldrich (St. Louis, MO) and 300 μl of MeOH:ACN (15:85) were used for protein precipitation. 200 μl of NH4OH 5% was added to 200 μl of the sample after filtration and 10 μl was injected to the LCMS system. The bioanalytical method was validated in accordance with current U.S. FDA guidelines including selectivity, linearity, intra- and interday precision and accuracy, recovery and stability (“Guidance for Industry, Bioanalytical Method Validation,”2018 fda.gov/media/70858/download).
In vitro cevimeline (CV) release from OA hydrogels was tested by creating 1 mm×4 mm disks with either a 2 or 5% oxidation at a weight/volume of 2, 5, or 10%. Alginate+cevimeline (Abcam, ab141317) hydrogels were created by resuspending the drug at the desired concentration in the DMEM prior to mixing with the lyophilized OA, subsequent crosslinking proceeds as described above to encapsulate the drug with the OA hydrogel. Three 4 mm alginate+cevimeline hydrogels were placed in 0.4 μm transwell in a 12-well plate containing 3.2 ml of DMEM incubating in 37° C. with slow continuous agitation (100 RPM). Sample media (3 ml DMEM) was collected and replenished at 4 hours, 1-, 2-, 3-, 4-, 5-, and 7 days (D). Three hydrogels were pooled together with an average of 3-5 separate replicates (samples) at each time point. Sample media was stored at −20° C. until mass spectroscopy analysis was performed. […]

[3] = system: acinar cells of irradiated salivary glands; experiment: Cell proliferation in salivary glands after gamma-radiation induced damage; assay type: in vivo, mouse; settings: 14 days after 10Gy, 18 hrs, vs saline
[4] = cited from earlier work
[5] = long term oral use in patients; cited from earlier work
[6] = system: SOX2^+ cells in SLG explants; experiment: Ex vivo lineage tracing in adult salivary gland explants (Sox2CreERT2; Rosa26mTmG); assay type: cell-based, mouse; settings: 200 nM, 48 h
Procedure: Salivary glands from Sox2^CreERT2; Rosa26^mTmG mice (recombination induced 24 h prior) were mechanically dissected into <1-mm pieces, placed in complete media in the presence or absence of 200 nM CCh (Sigma-Aldrich) or 10 μM 4-DAMP (Tocris), and cultured for 48 h before being fixed for immunofluorescence. In some cases, mice were irradiated with three doses of 5 Gy before glands were taken for culture as above.
Whole-mount salivary gland and tissue section immunofluorescence analysis has been previously described (Knox et al., 2010). In brief, tissue was fixed with either ice-cold acetone/methanol (1:1) for 1 min or 4% PFA for 20-30 min followed by permeabilizing with 0.1-0.3% Triton X. Tissue was blocked overnight at 4° C. with 10% Donkey Serum (Jackson Laboratories, ME), 1% BSA (Sigma-Aldrich), and MOM IgG-blocking reagent (Vector Laboratories, CA) in 0.01% PBS-Tween 20. […] Antibodies were detected using Cy2-, Cy3-, or Cy5-conjugated secondary Fab fragment antibodies (Jackson Laboratories) and nuclei stained using Hoechst 33342 (1:1,000, Sigma-Aldrich). Fluorescence was analyzed using a Leica Sp5 confocal microscope and NIH ImageJ software.
For immunofluorescent analyses (e.g., FIG. 2D), cells positively stained for markers were counted using ImageJ. Acinar cell size was measured using ImageJ. […]

[7] = system: human salivary gland (SMG or PG) explants; experiment: Human salivary gland explant culture with CCh, qPCR; assay type: cell-based; settings: 200 nM, 4 h, vs untreated
Excerpt: Adult human salivary gland was obtained from discarded, non-identifiable tissue with consent from patients undergoing neck resection (age 28-78, male and female). Informed consent was given by all subjects and experiments conformed to the principles set out in the WMA Declaration of Helsinki and the Department of Health and Human Services Belmont Report. Patients had either had no irradiation therapy (non-IR) or fractionated radiation therapy (IR)<2 years prior to surgery. Tissue was immediately placed in 4% PFA, RNAlater (Qiagen) or DMEM (Thermo Fisher) for live cell explant culture. For ex vivo culture, non-IR tissue was dissected into <1-mm pieces and cultured in serum-free DMEM/F12 containing holotransferrin and ascorbic acid. For explant assays, the tissue (SMG and PG) was incubated with 50-200 nM CCh (200 nM CCh shown in results) for 4 h before being lysed for RNA. For salivary gland explant-parasympathetic submandibular ganglia […] co-culture, tissue was dissected into <1-mm pieces and cultured on a floating filter above serum-free media. E13 mouse parasympathetic submandibular ganglia were isolated as previously described (Knox et al., 2010). One parasympathetic submandibular ganglion per explant was placed next to the human salivary gland and cultured for 7 days and either fixed for immunofluorescent analysis or lysed for RNA.
RNA was isolated from whole tissue using RNAqueous Micro Kit (Ambion). Total RNA samples were DNase-treated (Ambion) prior to cDNA synthesis using SuperScript reagents (Invitrogen, CA). SYBR green qPCR was performed using 5 ng (mouse) or 4-10 ng (human) of cDNA and primers designed using Primer3 and Beacon Designer software or described on PrimerBank (pga.mgh.harvard.edu/primerbank/). Melt curves and primer efficiency were determined as previously described (Hoffman et al., 2002). Gene expression was normalized to the housekeeping genes S18 and S29 (Rps18 and Rsp29) or GAPDH for mouse and GAPDH for human and to the corresponding experimental control. Reactions were run in triplicate and experiments performed 2-3 times.

For CC1OC2(CS1)CN1CCC2CC1 (stereo not shown) [cevimeline], the acinar cell proliferation [1] was “significantly increased”, the “release rates with different starting drug loading” value ([2]; 2% OA hydrogels at 5 wt %, different initial cevimeline loading per disk) was “remain relatively consistent” and the “cevimeline released by 2 days” value ([2]; from OA alginate hydrogels (2 or 5% OA; 2, 5 or 10 wt %)) was “over 85±5%”. For the same molecule, the “day by which all cevimeline had been released” value ([2]; from OA hydrogels) was no more than 4 days, the “duration of sustained release” value ([2]; from alginate hydrogel) was 2 days and the “proliferation of acinar cells in irradiated mice” value ([3]; local (intraglandular) 10 mg/kg) was “increased”. The “proliferation of acinar cells in irradiated mice” value ([3]; systemic (i.p.) 10 mg/kg) was “increased”, the pKA [4] was 9.5 and the salivary gland function [5] was “improves salivary gland function”.
For C[N+](C)(C)CCOC(N)=O [CCh, carbachol], the “GFP^+ clones” value ([6]; healthy (no IR) SLG tissue) was “increase”, the “cell proliferation (Ki67^+ cells)” value ([6]; healthy SLG tissue) was “increase” and the “GFP^+ cells in IR explants” value ([6]; irradiated SLG explants, compared to IR alone) was “increased”. For the same molecule, the “expression of AQP3” value ([7]; n=4 individuals) was “significantly increased”, the “expression of AQP5” value ([7]; n=4 individuals) was “significantly increased” and the “expression of CHRM1” value ([7]; n=4 individuals) was “significantly increased”. The “expression of CHRM3” value ([7]; n=4 individuals) was “significantly increased”, the “expression of MIST1” value ([7]; n=4 individuals) was “significantly increased” and the “expression of SOX2” value ([7]; n=4 individuals) was “significantly increased”. The KRT19 gene expression [7] was “increase”, the “expression of ductal marker EGFR” value [7] was “remained unchanged” and the “expression of ductal marker KRT7” value [7] was “remained unchanged”. For the same molecule, the “expression of ductal marker KRT8” value [7] was “remained unchanged”.
